Source: PMC4727417, “Characterization of a novel 8R,11S-linoleate diol synthase from Penicillium chrysogenum by identification of its enzymatic products” (Journal of Lipid Research, 2016)

B1: 8R,11S-linoleate diol synthase (8R,11S-LDS; PC_1) (Penicillium rubens Wisconsin 54-1255) (protein)
chain: MAEKESNSSGKIAQLEQVVAAALRPLPTQTGDGSYVQEPTVTGLAKDLLNFDLKDAKTLADMAKTAVTGKAVNDRDYIMERVIQLASGLPSTSRNGKELTNTFLTQLWGDLEHPPISYLGRDAAYRKADGSGNNTFWPQIGAANTPYARSVRPKTMQPVALPEPEALFDSLLARKDFKEHPNKISSVLFHLASIIIHDLFQTDPRDQTKSLTSSYLDLSPLYGNNQKEQDTVRAFKDGKLKPDCFSTKRVLGFPPGVGVILIMFNRFHNSVVTQLAAINEGGRFTKPDESNAEAYATWDNDLFQTARLVTCGLYINIILKDYVRTILNVNRTDSLWSLDPRADIRDGLLGEAPAQATGNQVSAEFNLVYRWHSCVSSRDEKWSEDLYKEIFDGKDPKEISMQQFTGGLRQWESKLPADPQERPFAKLQRQADGKFDDNDLVKIFEESVEDPAGAFGALNVPDVFRGIEVLGIKQARSWNLATLNEFRQYFGLAAYQTFEEINPDPYVANQLKHFYDHPDLVELYPGLVVEETKQAMTPGSGLCTNFTTSRAILSDAVALVRGDRFYTVDFTPKHLTNWAFNEINNDVSVDGGQVFYKLILKAFPNHFRGDSVYAHFPLVVPDENKKILTSLGKVKTYSFDRPFYKAPPLFINSHSACTKILKDQEGFKVVWGEKIQFLMENSGRPYGRDFALSGDLPANAASRKMIGAALHRDKWESEVKAFYEDITLKLLERNSFKVAGVNQVDIVRDVAVLAQVNFCANVFSLSLKTESNPRGVFSEQELYQILAVIFASIFYDVDVSKSLQLCQTARNVAQQLGELTLANVELVAKTGFISNLVNRLHRHDILSEYGIHMIQRLLDSQLPVKDVVWSHILPTAGALVANQGQLFSQCIDYYLSEEAAEHLAEIQRLSREDTPEADELLVRYFMEGARLRCSVALPRFATKPTVVDDNGKRVTLKAGQEIICNLVVAGRDPVAFPDPDKVRLDRDMSLYTHFGFGPHECLGVKMCPLALSTMLKVLGRLDNVRRAPGPQGHLKRLDGLGGIAMYMDAEHSSFSPFPMTMKIQWDGDLPARRE
notes: full length, 1,074 residues, C-terminal His6 (pET-21a), E. coli ER2566, HisTrap purified; calculated 120,998 Da; N-terminal DOX domain 1-669, C-terminal P450 hydroperoxide isomerase domain 670-1074

Assays:
[1] = biological target: T1, 8R,11S-linoleate diol synthase (8R,11S-LDS; PC_1) (Penicillium rubens, UniProt B6HQI5); assay: O2 uptake, Clark-type oxygen monitor, Hanes-Woolf plot; assay type: biochemical; conditions: DOX activity (N-terminal dioxygenase domain of the whole enzyme); co-substrate O2; 50 mM EPPS pH 8.0, 25°C
T1 construct: gene Pc22g06980; full length, 1,074 residues, C-terminal His6 (pET-21a), E. coli ER2566, HisTrap purified; calculated 120,998 Da; N-terminal DOX domain 1-669, C-terminal P450 hydroperoxide isomerase domain 670-1074

[2] = biological target: T1, 8R,11S-linoleate diol synthase (8R,11S-LDS; PC_1); assay: HPLC of dihydroxy fatty acid product, Hanes-Woolf plot; assay type: biochemical; conditions: whole enzyme activity: overall conversion to dihydroxy fatty acid by sequential DOX and hydroperoxide isomerase domains; 25°C, 50 mM EPPS pH 8.0
[3] = biological target: T1, 8R,11S-linoleate diol synthase (8R,11S-LDS; PC_1); assay: UV-visible spectroscopy, heme/protein absorption ratio (A410/A280); assay type: binding; conditions: heme occupancy of the purified enzyme
[4] = substrate: CCCCCC/C=C\CCCCCCCC(=O)O; assay: O2 uptake, Clark-type oxygen monitor, Hanes-Woolf plot; assay type: biochemical, Penicillium rubens; conditions: DOX activity (N-terminal dioxygenase domain of the whole enzyme), co-substrate O2, 50 mM EPPS pH 8.0, 25°C
Text: O2 uptake, Clark-type oxygen monitor, Hanes-Woolf plot on 8R,11S-linoleate diol synthase (8R,11S-LDS; PC_1)

Molecule	Km [1] [µM]	Km [2] [µM]	further results
CCCCCCCC/C=C\CCCCCCCC(=O)O [oleic acid]	34.3 ± 1.2	–	–
CC/C=C\C/C=C\C/C=C\CCCCCCCC(=O)O [α-linolenic acid]	69.9 ± 0.3	138 ± 3.2	–
CCCCC/C=C\C/C=C\CCCCCCCC(=O)O [linoleic acid]	18.9 ± 0.6	86.1 ± 1.8	–
C=CC1=C(C)C2=Cc3c(C=C)c(C)c4[n]3[Fe][n]3c(c(C)c(CCC(=O)O)c3=CC3=NC(=C4)C(C)=C3CCC(=O)O)=CC1=N2 [heme]	–	–	UV-visible spectroscopy, heme/protein absorption ratio (A410/A280) [3]: Heme occupancy of the wild-type and H999A, C1001S, and H999A-C1001S variant enzymes
B1	–	–	Km [4]: 20.0 ± 0.5 µM; kcat [4]: 81.8 ± 3.77 s⁻¹; kcat/Km [4]: 4.32e+06 M⁻¹ s⁻¹
